Reference: paper PMC12573178, “Substrate-Guided Development of HDAC11-Selective Inhibitors Featuring α‑Amino Amide Zinc-Binding Groups” (ACS Omega, 2025)
Where “and” joins values, the source holds several entries; their conditions need not be identical. Equal values may be shown once. Entries after “also recorded” stand apart in the source; their conditions may differ. Read-outs that look alike come from different tables or passages of the source. Residues, ends and D or L forms follow the SMILES beside them. No end group written: not given here. ξ: configuration not given here. *: point of attachment. ξGly(tetradecyl) = CCCCCCCCCCCCCCC(N)C(=O)O; Myristoyl = CCCCCCCCCCCCCC(=O)*; X1 = CCCCCCCCCCCCCCC(S)C(=O)*

How the values were obtained:
[1] = biological target: T1, HDAC11 (Homo sapiens, UniProt Q96DB2); assay: HDAC11 inhibition, continuous fluorescence-based assay with fatty-acylated peptide substrate; type: biochemical; conditions: for IC50: substrate Ac-EALPK(11-Abz-Aun)KY(3-NO2)GG-NH2 20 µM, triplicate, read-out: IC50 against HDAC11; for IC50 increase compared to 28: HDAC11
T1 sequence (Q96DB2 1-347): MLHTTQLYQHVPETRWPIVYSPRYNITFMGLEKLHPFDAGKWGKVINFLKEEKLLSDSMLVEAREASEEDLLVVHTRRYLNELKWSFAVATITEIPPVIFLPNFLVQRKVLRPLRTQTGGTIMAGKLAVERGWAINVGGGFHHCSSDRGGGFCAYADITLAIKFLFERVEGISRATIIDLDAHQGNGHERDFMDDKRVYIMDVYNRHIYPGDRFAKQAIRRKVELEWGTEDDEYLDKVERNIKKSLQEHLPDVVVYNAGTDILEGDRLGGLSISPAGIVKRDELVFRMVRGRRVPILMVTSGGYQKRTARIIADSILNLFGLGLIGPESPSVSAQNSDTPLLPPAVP
Experimental: Inhibition of the enzymatic activity of HDACs was performed continuously for HDAC8, HDAC11, and SIRT2 and discontinuously for SIRT2, 3, and 6 using adequate substrates as described previously. , Experimental details are given in the Supporting Information.
A. HDAC and SIRT deacylase activity assays
Continuous in vitro HDAC inhibition assays
The inhibitors were tested using 384-well plates (GreinerONe). After 5 min of incubation of the inhibitors together with the respective enzymes (HDAC8 = 2 nM, HDAC11 = 20 nM, SIRT2 = 1 nM), the reactions were always started by the addition of substrate for the Zn2+-dependent HDAC and by the addition of NAD+ for SIRT2. The reactions were performed in either HDAC8 buffer (20 mM HEPES, 140 mM NaCl, 10 mM MgCl 2, 1 mM tris(2-carboxyethyl)phosphine (TCEP), and 0.2 mg/ml BSA, pH 7.4 adjusted with NaOH), HDAC11 buffer (20 mM HEPES, 70 µM TCEP and 2 mg/ml BSA, pH 7.4 adjusted with NaOH) or SIRT buffer (20 mM Tris, 150 mM NaCl, 5 mM MgCl2 and 2 mg/ml BSA pH 7.8 adjusted with HCl), respectively. The thiotrifluoracetylated substrate Abz-SRGGK(thio-TFA)FFRR-NH2 (50 µM) […]
Aun is N-(2-aminobenzoyl)-11-aminoundecanoyl, was used for HDAC11 and Ac-EALPKK(Myr)T-C(Fluorescein)-G-NH2 (40 nM) was used for SIRT2 1-3.
The fluorescence increase was followed for 1 h with two reads per min using a PerkinElmer Envision […]
The excitation wavelength for HDAC8 and 11 was 320 ± 8 nm and the […]
Positive (enzyme, substrate, DMSO, and buffer) and negative
(substrate, DMSO, and Buffer) controls were included in every measurement and were set as 100% and 0%, respectively. The measured values were normalized accordingly. All tests were performed in triplicates. The data were fitted using the GraphPad Prism8 software and kinetic values calculated through non-linear regression analysis. […]

[2] = biological target: T1, HDAC11; set-up: method as in not printed per compound; conditions: literature values, Figure 1; ref not printed per compound; read-out: IC50 as reported for HDAC11; cited from earlier work
[3] = biological target: T1, HDAC11; assay: Microscale thermophoresis (MST) binding; conditions: 20 nM 32, varying concentrations of HDAC11, 25 °C
Experimental: Microscale thermophoresis (MST) was performed using a Monolith NT.115 (Nanotemper) with standard capillaries (MO-K022). The reaction solution contained a dilution series (1:1) of 16 different concentrations of HDAC11 (0.48 nM to 16 μM) and 20 nM 32 in MST buffer (20 mM MOPS buffer (pH 7.4 adjusted with NaOH), 0.2 mg/mL BSA, and 70 μM TCEP) and 5% (v/v) DMSO. After 5 min of incubation, the samples were loaded into capillaries and measured at 25 °C with a Filter Nano-BLUE at an excitation power of 20% and an MST power of 40%. The resulting data were fitted by MO.Affinity Analysis software (Nanotemper) via MST curves and fluorescence signals.

[4] = biological target: T1, HDAC11; set-up: method as in number not given; conditions: myristoylated 12-mer peptide; ref number not given; read-out: KM value as substrate of HDAC11; cited from earlier work
[5] = biological target: T1, HDAC11; assay: Substrate assay: incubation with HDAC11, UPLC-MS analysis of cleavage product; type: biochemical; conditions: 50 μM compound, 10 or 100 nM HDAC11, 37 °C, 24 h
Experimental: Because acylated H3K9 peptides are known to be substrates of HDAC11, , it had to be analyzed if the presence of a substitution in close proximity to the hydrolyzable amide bond is sufficient to suppress the deacylation of the compound by HDAC11, thereby transforming a substrate into an inhibitor. Accordingly, 50 μM of the most promising compounds, specifically 2, 10, 17, and 18, were incubated in the presence of 10 or 100 nM of HDAC11 at 37 °C for 24 h, followed by UPLC–MS analysis. […] Consequently, compounds 17 and 18 were excluded from further analyses.
The peptides were incubated at 50 μM, together with 10 or 100 nM HDAC11 in HDAC11 buffer for 24 h at 37 °C. The solution was then analyzed using UPLC–MS.
F. UPLC-MS Data of the substrate test
In order to ascertain whether peptides 2, 10, 17 and 18 are possible substrates of HDAC11, 50 µM of the peptides were incubated with 100 nM HDAC11 for 24 hours at 37°C. Subsequently, a sample of the solutions was subjected to analysis using UPLC-MS. The presence of the double-charged peptide representing the expected cleavage product Ac-TARKSTG-NH2 of 2, 10, 17 and 18 with the m/z ratio of [M+2H]2+ (381.45) was taken as an indicator of a HDAC11-catalysed reaction. […]
exclusively HDAC11 in the assay buffer. No signal indicative for the product peptide was detected. […]
Absorbance at 220 nm is shown. […]

[6] = Stability in aqueous solution; type: physicochemical; conditions: 37 °C for 24 h
[7] = system: global protein fatty acylation; set-up: method as in previous studies (number not given); conditions: treatment with pan-HDAC inhibitor; ref previous studies (number not given); cited from earlier work

Compound: CCCCCCSC[C@@H](N)C(=O)NCCCCC [Compound 25]
- IC50 [1]: 904 ± 118 nM

Compound: CCCCCCCCCCCCSC[C@@H](N)C(=O)N1Cc2ccccc2C1 [Compound 30]
- IC50 increase compared to 28 [1]: more than 10 fold

Compound: C/C=C1\NC(=O)[C@H]2CSSCC/C=C/[C@H](CC(=O)N[C@H](C(C)C)C(=O)N2)OC(=O)[C@H](C(C)C)NC1=O [Romidepsin (FK-228), Romidepsin]
- IC50 [2]: 2700 nM

Compound: CCCCCCCCCCCCSC[C@@H](N)C(=O)NCCCC[C@H](NC(=O)[C@H](CCCCN)NC(=O)CCC(=O)NCCCOCCOCCOCCCNC(=O)c1ccc2c(c1)C(=O)OC21c2ccc(O)cc2Oc2cc(O)ccc21)C(N)=O [Compound 32]
- IC50 [1]: 537 nM
- Kd [3]: 271 nM and 270 nM

Compound: CCCCCOCCCCCNNC(=O)c1ccc(CNC(=O)c2ccccc2)cc1 [Compound B6]
- IC50 [2]: 51.1 nM

Compound: KQTARK(Myristoyl)STGGWW [H3K9(Myr)]
- Km [4]: 17.3 µM

Compound: CCCCCCCCCCCCCCC(S)C(=O)NCCCC[C@H](NC(=O)[C@H](CCCNC(=N)N)NC(=O)[C@H](C)NC(=O)[C@@H](NC(C)=O)[C@@H](C)O)C(=O)N[C@@H](CO)C(=O)N[C@H](C(=O)NCC(N)=O)[C@@H](C)O (stereo partly shown) [Compound 2] (Ac-TARK(X1)STG-NH2; N-terminus and C-terminus assumed)
- Substrate properties / hydrolysis by HDAC11 [5]: no single recognisable peak is present at the expected time; also recorded: not able to hydrolyze
- Stability in aqueous solution [6]: completely stable

Compound: CCCCCCCCCCSC[C@@H](N)C(=O)NCCCCC [Compound 27]
- IC50 [1]: 150 ± 10.7 nM

Compound: CCCCCCCCSC[C@@H](N)C(=O)NCCCCC [Compound 26]
- IC50 [1]: 399 ± 60 nM

Compound: CCCCCCCCCCCCSC[C@@H](N)C(=O)NCc1cn(C)nn1 [Compound 29]
- IC50 increase compared to 28 [1]: more than 10 fold

Compound: CCCCCCCCCCCCCCC(N)C(=O)NCCCC[C@H](NC(=O)[C@H](CCCNC(=N)N)NC(=O)[C@H](C)NC(=O)[C@@H](NC(C)=O)[C@@H](C)O)C(=O)N[C@@H](CO)C(=O)N[C@H](C(=O)NCC(N)=O)[C@@H](C)O (stereo partly shown) [Compound 10] (Ac-TARK(ξGly(tetradecyl))STG-NH2; N-terminus and C-terminus assumed)
- Substrate properties / hydrolysis by HDAC11 [5]: no single recognisable peak is present at the expected time; also recorded: not able to hydrolyze
- Stability in aqueous solution [6]: completely stable

Compound: O=C(CCCCCCC(=O)Nc1ccccc1)NO [Vorinostat (SAHA), vorinostat]
- Global protein fatty acylation [7]: decrease in global protein fatty acylation

Compound: CCCCCCCCCCCCSC[C@@H](N)C(=O)NCCCCC [Compound 28]
- IC50 [1]: 56.1 ± 6 nM
